# Assay results as given in US11986540B2, “Compositions including pafolacianine for the identification of malignant lesions” (ON TARGET LABORATORIES, LLC., priority 2022, dated 2024).
# Read-outs that look alike come from different tables or passages of the source.
# Columns and labels:
# [1] = Phase 1a pharmacokinetics in healthy volunteers, single IV administration; assay type: in vivo, human; settings: for AUC(0-t) / Tmax / AUC(0-inf) / clearance / Cmax / half-life / Vd: human, plasma, intravenous
# Text: A total of 73 potentially eligible healthy volunteers gave written acknowledgement of informed consent to participate in a Phase 1a study to assess the safety and pharmacokinetics of pafolacianine versus placebo. Fifty-four were found suitable for participation, of which 30 were enrolled in the study. Twenty-four subjects were white, 1 subject was Black/African-American, 1 was Asian, 1 was mixed race and 3 were of another race.
# The pharmacokinetic (PK) analysis population was defined as all subjects who were randomized and received study treatment. Of note, the drug infusion was stopped prematurely in 1 subject, and interrupted in another subject. The pharmacokinetics of pafolacianine following single IV administration of 0.025, 0.05, 0.1, or 0.2 mg/kg was determined using non-compartmental analysis; the key PK parameters are summarized in Table 7.
# [2] = Pharmacokinetics in specific populations; assay type: in vivo; settings: age 18-89 years, weight 41.6-133.6 kg, mild to moderate renal or hepatic impairment
# [3] = Partitioning into red blood cells; assay type: in vitro ADME
# [4] = Plasma protein binding, equilibrium dialysis, rat plasma; assay type: in vitro ADME; settings: Sprague Dawley, read-out: mean (±SD) percentage of plasma protein bound (converted)
# Method: The plasma protein binding of pafolacianine was studied in vitro in fresh human, Sprague Dawley rat, and Beagle dog plasma using equilibrium dialysis. Pafolacianine was introduced into plasma samples, in duplicate, resulting in a final concentration of 5 μM. The mean (±SD) percentage of plasma protein bound pafolacianine was 99.1±0.1%, 98.6±0.1%, and 93.7±1.5% for rat, dog and human, respectively. Pafolacianine was highly bound to plasma protein in all species examined.
# [5] = Embryo-fetal development study in rabbits; assay type: in vivo
# Method: Pafolacianine was intravenously administered at doses of, during the period of organogenesis namely, 0.015, 0.15, and 1.5 mg/kg/day from gestational day (GD) 6 to GD17 in rats (human equivalent doses (HEDs) of 0.002, 0.024 and 0.242 mg/kg/day) and 0.3, 1, and 3 mg/kg/day from GD7 to GD20 in rabbits (HEDs of 0.097, 0.323 and 0.968 mg/kg/day). […] No-Observed-Adverse-Effect-Levels were 1.5 mg/kg/day in rats and 3 mg/kg/day in rabbits.
# [6] = Single IV dose toxicokinetics in rats; assay type: in vivo; settings: Study Day 0; for AUC(0-t) / C0: rat, in vivo
# Method: Following a single IV administration of pafolacianine to male and female rats, systemic exposure (AUClast) to pafolacianine appeared similar between males and females at the 46.3 mg/kg dose levels (Table 2). There was a slight trend for higher AUClast values in females versus males at the two lower dose levels; however, due to sparse sampling of blood, the significance of this slight trend could not be evaluated. Values for AUClast were calculated, but the time associated with the last measurable concentration was variable (Tlast; 5 min to 24 hr), which confounded the ability to assess dose proportionality. Terminal data were generally sparse and/or the terminal phase was not sufficiently defined (FIG. 4). Thus, parameters dependent on accurate determination of the terminal phase (AUCinf, T1/2, CL, Vz) were not reported.
# ovarian cancer lesion = experiment: Randomized, multicenter, open-label study: detection of ovarian cancer lesions under fluorescent light; assay type: in vivo, human
# Method: The safety and efficacy of the compositions disclosed herein was evaluated in a randomized, multicenter, open-label study. The study enrolled 178 women diagnosed with ovarian cancer or with high clinical suspicion of ovarian cancer scheduled to undergo primary surgical cytoreduction, interval debulking, or recurrent ovarian cancer surgery. One hundred and fifty women highly suspicious for or with confirmed ovarian cancer received a composition including pafolacianine (dosed at 0.025 mg/kg at least 1 hour before initiation of fluorescence imaging). Among them, 134 women with mean age 60 (range 33 to 81) years received both normal light imaging evaluation and fluorescence imaging evaluation (the Intent-to-Image set).
# The study assessed the proportion of patients with at least one evaluable ovarian cancer lesion confirmed by central pathology that was detected with compositions including pafolacianine under fluorescent light but not under normal light or palpation and not otherwise identified for resection prior to surgery. The detection proportion was estimated in women who underwent both normal light and fluorescent light (Intent-to-Image Set), see Table 1.
# [7] = dose escalated 8-fold (0.025 to 0.2 mg/kg)
# [8] = 0.025 mg/kg, in 20 ml 0.9% NaCl, 10- and 60-min infusion
# [9] = 0.025 mg/kg, in 220 ml 5% dextrose, 60-min infusion
# [10] = 0.05 mg/kg, in 220 ml 5% dextrose, 60-min infusion
# [11] = 0.1 mg/kg, in 220 ml 5% dextrose, 60-min infusion
# [12] = 0.2 mg/kg, in 220 ml 5% dextrose, 60-min infusion
# [13] = 0.2 mg/kg, with pre-treatment of antihistamine (clemastine)
# [14] = female rats, 3.1 mg/kg single IV
# [15] = female rats, 30.8 mg/kg single IV
# [16] = female rats, 46.3 mg/kg single IV
# [17] = male rats, 30.8 mg/kg single IV
# [18] = male rats, 46.3 mg/kg single IV
smiles,measurement,setting,value
CC1(C)C(=CC=C2CCCC(C=CC3=[N+](CCCCS(=O)(=O)[O-])c4ccc(S(=O)(=O)O)cc4C3(C)C)=C2Oc2ccc(CC(NC(=O)c3ccc(NCc4cnc5nc(N)[nH]c(=O)c5n4)cc3)C(=O)O)cc2)N(CCCCS(=O)(=O)O)c2ccc(S(=O)(=O)O)cc21 (centres unmarked) [pafolacianine],increase in AUClast,[1]; [7],~22 fold
same,increase in Cmax,[1]; [7],~12 fold
same,AUC(0-t),[1]; [8],63.4 ng·h/mL
same,Tmax,[1]; [8],0.75 h
same,AUC(0-inf),"[1]; 0.025 mg/kg, in 20 ml 0.9% NaCl, 10- and 60-min infusion, read-out: AUC0-inf",66.4 ng·h/mL
same,clearance,"[1]; 0.025 mg/kg, in 20 ml 0.9% NaCl, 10- and 60-min infusion, read-out: CL (converted)",443 mL/min
same,Cmax,"[1]; 0.025 mg/kg, in 20 ml 0.9% NaCl, 10- and 60-min infusion, read-out: Cmax",93.3 ng/mL
same,half-life,"[1]; 0.025 mg/kg, in 20 ml 0.9% NaCl, 10- and 60-min infusion, read-out: T1/2 (converted)",25 min
same,Vd,"[1]; 0.025 mg/kg, in 20 ml 0.9% NaCl, 10- and 60-min infusion, read-out: Vz",15.9 L
same,AUC(0-t),[1]; [9],61.6 ng·h/mL
same,Tmax,[1]; [9],0.95 h
same,AUC(0-inf),"[1]; 0.025 mg/kg, in 220 ml 5% dextrose, 60-min infusion, read-out: AUC0-inf",63.6 ng·h/mL
same,clearance,"[1]; 0.025 mg/kg, in 220 ml 5% dextrose, 60-min infusion, read-out: CL (converted)",477 mL/min
same,Cmax,"[1]; 0.025 mg/kg, in 220 ml 5% dextrose, 60-min infusion, read-out: Cmax",59.1 ng/mL
same,half-life,"[1]; 0.025 mg/kg, in 220 ml 5% dextrose, 60-min infusion, read-out: T1/2 (converted)",26.3 min
same,Vd,"[1]; 0.025 mg/kg, in 220 ml 5% dextrose, 60-min infusion, read-out: Vz",17.1 L
same,AUC(0-inf),"[1]; 0.025 mg/kg, read-out: area under the plasma concentration-time curve to infinity (AUCinf)",63.6 ± 12.6 ng·h/mL
same,half-life,"[1]; 0.025 mg/kg, read-out: elimination half-life (converted)",26.4 ± 13.8 min
same,Cmax,"[1]; 0.025 mg/kg, read-out: mean maximum plasma concentration (Cmax)",59.1 ± 5.94 ng/mL
same,clearance,"[1]; 0.025 mg/kg, read-out: mean plasma clearance (converted)",477 mL/min
same,AUC(0-t),[1]; [10],250 ng·h/mL
same,Tmax,[1]; [10],1.03 h
same,AUC(0-inf),"[1]; 0.05 mg/kg, in 220 ml 5% dextrose, 60-min infusion, read-out: AUC0-inf",258 ng·h/mL
same,clearance,"[1]; 0.05 mg/kg, in 220 ml 5% dextrose, 60-min infusion, read-out: CL (converted)",245 mL/min
same,Cmax,"[1]; 0.05 mg/kg, in 220 ml 5% dextrose, 60-min infusion, read-out: Cmax",184 ng/mL
same,half-life,"[1]; 0.05 mg/kg, in 220 ml 5% dextrose, 60-min infusion, read-out: T1/2 (converted)",55.9 min
same,Vd,"[1]; 0.05 mg/kg, in 220 ml 5% dextrose, 60-min infusion, read-out: Vz",19.2 L
same,AUC(0-t),[1]; [11],785 ng·h/mL
same,Tmax,[1]; [11],1.02 h
same,AUC(0-inf),"[1]; 0.1 mg/kg, in 220 ml 5% dextrose, 60-min infusion, read-out: AUC0-inf",799 ng·h/mL
same,clearance,"[1]; 0.1 mg/kg, in 220 ml 5% dextrose, 60-min infusion, read-out: CL (converted)",161 mL/min
same,Cmax,"[1]; 0.1 mg/kg, in 220 ml 5% dextrose, 60-min infusion, read-out: Cmax",450 ng/mL
same,half-life,"[1]; 0.1 mg/kg, in 220 ml 5% dextrose, 60-min infusion, read-out: T1/2 (converted)",98.4 min
same,Vd,"[1]; 0.1 mg/kg, in 220 ml 5% dextrose, 60-min infusion, read-out: Vz",22.2 L
same,AUC(0-t),[1]; [12],1310 ng·h/mL
same,Tmax,[1]; [12],1.09 h
same,AUC(0-inf),"[1]; 0.2 mg/kg, in 220 ml 5% dextrose, 60-min infusion, read-out: AUC0-inf",1340 ng·h/mL
same,clearance,"[1]; 0.2 mg/kg, in 220 ml 5% dextrose, 60-min infusion, read-out: CL (converted)",167 mL/min
same,Cmax,"[1]; 0.2 mg/kg, in 220 ml 5% dextrose, 60-min infusion, read-out: Cmax",640 ng/mL
same,half-life,"[1]; 0.2 mg/kg, in 220 ml 5% dextrose, 60-min infusion, read-out: T1/2 (converted)",160 min
same,Vd,"[1]; 0.2 mg/kg, in 220 ml 5% dextrose, 60-min infusion, read-out: Vz",38.8 L
same,AUC(0-t),[1]; [13],1400 ng·h/mL
same,Tmax,[1]; [13],1 h
same,AUC(0-inf),"[1]; 0.2 mg/kg, with pre-treatment of antihistamine (clemastine), read-out: AUC0-inf",1430 ng·h/mL
same,clearance,"[1]; 0.2 mg/kg, with pre-treatment of antihistamine (clemastine), read-out: CL (converted)",170 mL/min
same,Cmax,"[1]; 0.2 mg/kg, with pre-treatment of antihistamine (clemastine), read-out: Cmax",765 ng/mL
same,half-life,"[1]; 0.2 mg/kg, with pre-treatment of antihistamine (clemastine), read-out: T1/2 (converted)",144 min
same,Vd,"[1]; 0.2 mg/kg, with pre-treatment of antihistamine (clemastine), read-out: Vz",36 L
same,clearance,"[1]; 0.025 to 0.2 mg/kg, read-out: clearance over the dose range",167 to 483 mL/min
same,half-life,"[1]; 0.025 to 0.2 mg/kg, read-out: half-life values range",24 to 162 min
same,Vd,[1]; read-out: mean volume of distribution (Vz),17.1 ± 5.99 L
same,"differences in pharmacokinetics by age, weight, renal or hepatic impairment",[2],No clinically significant differences
same,partitioning into red blood cells,[3],No notable partitioning
same,fraction unbound at 5 μM,[4],0.009
same,Estimated systemic exposure relative to human exposure at 0.025 mg/kg (AUC comparison),[5]; rabbit,570 times
same,maternal toxicity and embryo-fetal development toxicity,"[5]; rabbits, 0.3, 1, 3 mg/kg/day IV",No significant drug-related maternal toxicity and embryo-fetal development toxicity
same,No-Observed-Adverse-Effect-Level,"[5]; rabbits, IV, GD7 to GD20",3 mg/kg/day
same,DN AUClast,[6]; [14],0.816 (μg · h/mL)/(mg/kg)
same,DN AUClast,[6]; [15],5.39 (μg · h/mL)/(mg/kg)
same,DN AUClast,[6]; [16],5.51 (μg · h/mL)/(mg/kg)
same,DN AUClast,"[6]; male rats, 3.1 mg/kg single IV",0.184 (μg · h/mL)/(mg/kg)
same,DN AUClast,[6]; [17],3.86 (μg · h/mL)/(mg/kg)
same,DN AUClast,[6]; [18],6.18 (μg · h/mL)/(mg/kg)
same,AUC(0-t),[6]; [14],2.53 µg·h/mL
same,C0,[6]; [14],16.2 µg/mL
same,AUC(0-t),[6]; [15],166 µg·h/mL
same,C0,[6]; [15],178 µg/mL
same,AUC(0-t),[6]; [16],255 µg·h/mL
same,C0,[6]; [16],231 µg/mL
same,AUC(0-t),"[6]; male rats, 3.1 mg/kg single IV",0.57 µg·h/mL
same,C0,"[6]; male rats, 3.1 mg/kg single IV",6.87 µg/mL
same,AUC(0-t),[6]; [17],119 µg·h/mL
same,C0,[6]; [17],65.7 µg/mL
same,AUC(0-t),[6]; [18],286 µg·h/mL
same,C0,[6]; [18],174 µg/mL
same,"Patients with at least one confirmed ovarian cancer evaluable lesion, Proportion (%)","ovarian cancer lesion; detected under fluorescent light but not normal light or palpation, Intent-to-Image set N = 134, 0.025 mg/kg",0.269 (26.9%)
same,Patient-level false positive rate,"ovarian cancer lesion; near-infrared fluorescent light, ovarian cancer lesions confirmed by central pathology",20.2%
